Measured values as given in patent US8440708B2, “Triazole-substituted arylamides as P2X3 and P2X2/3 antagonists” (Roche Palo Alto LLC, priority 2007, dated 2013).

Assays:
rat P2X3 receptor = target: T1, rat P2X3 receptor (Rattus norvegicus, UniProt P49654); test: P2X3/P2X2/3 FLIPR (Fluorometric Imaging Plate Reader) Assay, P2X3; format: cell-based; conditions: CHO-K1 cells transfected with rat P2X3; agonist α,β-meATP 1 μM; Table 1; read-out: P2X3 pKi (converted)
T1 construct: expressed in transfected cells; host or cells: CHO-K1
T1 sequence (P49654 1-397): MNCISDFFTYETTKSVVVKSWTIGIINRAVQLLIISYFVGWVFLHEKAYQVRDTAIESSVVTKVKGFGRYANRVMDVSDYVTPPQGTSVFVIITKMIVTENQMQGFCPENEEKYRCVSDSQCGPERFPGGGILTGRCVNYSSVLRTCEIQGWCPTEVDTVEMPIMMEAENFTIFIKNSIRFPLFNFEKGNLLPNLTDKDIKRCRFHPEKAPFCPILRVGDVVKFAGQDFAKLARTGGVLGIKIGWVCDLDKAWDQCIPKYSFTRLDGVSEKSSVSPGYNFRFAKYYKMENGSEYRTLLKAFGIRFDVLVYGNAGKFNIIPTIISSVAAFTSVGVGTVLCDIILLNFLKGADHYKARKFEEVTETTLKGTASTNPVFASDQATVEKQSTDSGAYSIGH
Procedure, shortened: (§1)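 Read-out: peak Fluo-3 fluorescence (ex 488, em 510-570 nm) after α,β-meATP, 1 μM final on rat P2X3 or 5 μM on human P2X2/3, in transfected CHO-K1 cells. Compounds were preincubated 20 min at RT. Inhibition curves came from nonlinear regression.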

human P2X2/3 receptor = target: T2, human P2X2/3 receptor (Homo sapiens, UniProt P56373+Q9UBL9); test: P2X3/P2X2/3 FLIPR (Fluorometric Imaging Plate Reader) Assay, P2X2/3; format: cell-based; conditions: CHO-K1 cells transfected with human P2X2/3; agonist α,β-meATP 5 μM; Table 1; read-out: P2X2/3 pKi (converted)
T2 construct: expressed in transfected cells; host or cells: CHO-K1
T2 sequence (Q9UBL9 1-471): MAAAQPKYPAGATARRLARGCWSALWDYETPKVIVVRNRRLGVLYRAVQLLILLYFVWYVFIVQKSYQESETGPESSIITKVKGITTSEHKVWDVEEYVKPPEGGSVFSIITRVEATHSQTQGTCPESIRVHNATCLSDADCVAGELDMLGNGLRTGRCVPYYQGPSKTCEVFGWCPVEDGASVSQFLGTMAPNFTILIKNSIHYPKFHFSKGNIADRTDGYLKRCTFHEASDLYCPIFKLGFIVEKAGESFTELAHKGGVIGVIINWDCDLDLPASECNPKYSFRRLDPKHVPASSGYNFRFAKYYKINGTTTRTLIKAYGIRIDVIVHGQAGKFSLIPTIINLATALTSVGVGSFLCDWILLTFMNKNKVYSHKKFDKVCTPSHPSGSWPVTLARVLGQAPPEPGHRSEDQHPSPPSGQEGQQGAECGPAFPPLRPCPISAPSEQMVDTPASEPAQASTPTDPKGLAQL
T2 sequence (P56373 1-397): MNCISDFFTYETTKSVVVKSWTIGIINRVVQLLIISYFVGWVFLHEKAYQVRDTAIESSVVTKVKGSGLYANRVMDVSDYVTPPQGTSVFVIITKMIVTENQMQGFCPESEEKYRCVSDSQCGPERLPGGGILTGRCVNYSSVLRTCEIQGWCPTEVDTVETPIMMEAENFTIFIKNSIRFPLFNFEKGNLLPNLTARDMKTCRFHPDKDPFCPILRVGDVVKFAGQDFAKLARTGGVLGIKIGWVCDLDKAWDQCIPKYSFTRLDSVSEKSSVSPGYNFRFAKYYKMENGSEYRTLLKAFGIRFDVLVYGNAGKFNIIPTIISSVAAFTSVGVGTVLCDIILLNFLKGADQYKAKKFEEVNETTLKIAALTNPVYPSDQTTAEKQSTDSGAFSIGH
Procedure, shortened: as §1

| Ki (rat P2X3 receptor) | Ki (human P2X2/3 receptor) | SMILES |
| --- | --- | --- |
| 0.676 µM | 7.24 µM | Cc1ccc(-c2cc(C(=O)NCc3cnc(C)cn3)cc(-n3ncnc3C3CNC3)c2)nc1 [Compound 151, 3-(5-Azetidin-3-yl-[1,2,4]triazol-1-yl)-N-(5-methyl-pyrazin-2-ylmethyl)-5-(5-methyl-pyridine-2-yl)-benzamide] |
| 0.00575 µM | 0.0234 µM | Cc1ccc(-c2cc(C(=O)NCc3ccc(C)nn3)cc(-n3ncnc3C3CCC3)c2)nc1 [Compound 152, 3-(5-Cyclobutyl-[1,2,4]triazol-1-yl)-N-(6-methyl-pyridazin-3-ylmethyl)-5-(5-methyl-pyridin-2-yl)-benzamide] |
| 0.0269 µM | 4.37 µM | Cc1ccc(-c2cc(C(=O)NCc3ccc(=O)n(C)c3)cc(-n3ncnc3C(C)C)c2)nc1 [Compound 153, 3-(5-Isopropyl-[1,2,4]triazol-1-yl)-N-(1-methyl-6-oxo-1,6-dihydro-pyridin-3-ylmethyl)-5-(5-methyl-pyridin-2-yl)-benzamide] |
| 3.31 µM | 10 µM | COCCc1nc(C)nn1-c1cc(C(=O)N[C@@H](C)CO)cc(-c2ccc(C)cn2)c1 [Compound 155, N-((S)-2-Hydroxy-1-methyl-ethyl)-3-[5-(2-methoxy-ethyl)-3-methyl-[1,2,4]triazol-1-yl]-5-(5-methyl-pyridin-2-yl)-benzamide] |
| 0.123 µM | 10 µM | Cc1ccc(-c2cc(C(=O)NCc3cnc(C)cn3)cc(-n3ncnc3CC(C)(C)O)c2)nc1 [Compound 156, 3-[5-(2-Hydroxy-2-methyl-propyl)-[1,2,4]triazol-1-yl]-N-(5-methyl-pyrazin-2-ylmethyl)-5-(5-methyl-pyridin-2-yl)-benzamide] |
| 0.676 µM | 10 µM | Cc1ccc(-c2cc(C(=O)NCc3cnc(C)cn3)cc(-n3ncnc3C3CN(C)C3)c2)nc1 [Compound 157, 3-[5-(1-Methyl-azetidin-3-yl)-[1,2,4]triazol-1-yl]-N-(5-methyl-pyrazin-2-ylmethyl)-5-(5-methyl-pyridin-2-yl)-benzamide] |
| 0.0372 µM | 0.851 µM | Cc1cnc(CNC(=O)c2cc(-c3ccc(Cl)cn3)cc(-n3ncnc3C(C)N(C)C)c2)cn1 (centres unmarked) [Compound 158, 3-(5-Chloro-pyridin-2-yl)-5-[5-(1-dimethylamino-ethyl)-[1,2,4]triazol-1-yl]-N-(5-methyl-pyrazin-2-ylmethyl)-benzamide] |

Second part, the molecule before the results:

| SMILES | Ki (rat P2X3 receptor) | Ki (human P2X2/3 receptor) |
| --- | --- | --- |
| Cc1ccc(-c2cc(C(=O)NCc3cnc(C)cn3)cc(-n3ncnc3C(C)C)c2)c(F)c1 [Compound 135, 2′-Fluoro-5-(5-isopropyl-[1,2,4]triazol-1-yl)-4′-methyl-biphenyl-3-carboxylic acid (5-methyl-pyrazin-2-ylmethyl)-amide] | 0.00479 µM | 0.0257 µM |
| Cc1ccc(-c2cc(C(=O)NCc3cnc(C)cn3)cc(-n3ncnc3C(C)C)c2)cc1 [Compound 136, 5-(5-Isopropyl-[1,2,4]triazol-1-yl)-4′-methyl-biphenyl-3-carboxylic acid (5-methyl-pyrazin-2-ylmethyl)-amide] | 0.00537 µM | 0.0209 µM |
| Cc1ccc(-c2cc(C(=O)NCc3cnc(C)cn3)cc(-c3ncnn3C(C)C)c2)cc1 [Compound 137, 5-(2-Isopropyl-2H-[1,2,4]triazol-3-yl)-4′-methyl-biphenyl-3-carboxylic acid (5-methyl-pyrazin-2-ylmethyl)-amide] | 0.0115 µM | 0.398 µM |
| COc1nnc(C(C)C)n1-c1cc(C(=O)NCc2cnc(C)cn2)cc(-c2ccc(C)cc2)c1 [Compound 138, 5-(3-Isopropyl-5-methoxy-[1,2,4]triazol-4-yl)-4′-methyl-biphenyl-3-carboxylic acid (5-methyl-pyrazin-2-ylmethyl)-amide] | 0.724 µM | 4.17 µM |
| Cc1ccc(-c2cc(C(=O)NC3CC3)cc(-n3ncnc3C(C)N(C)C)c2)nc1 (centres unmarked) [Compound 139, N-Cyclopropyl-3-[5-(1-dimethylamino-ethyl)-[1,2,4]triazol-1-yl]-5-(5-methyl-pyridin-2-yl)-benzamide] | 0.0275 µM | 1.7 µM |
| Cc1ccc(-c2cc(C(=O)N[C@@H](C)CO)cc(-n3ncnc3C(C)N(C)C)c2)nc1 (stereo partly drawn) [Compound 140, 3-[5-(1-Dimethylamino-ethyl)-[1,2,4]triazol-1-yl]-N-((S)-2-hydroxy-1-methyl-ethyl)-5-(5-methyl-pyridin-2-yl)-benzamide] | 0.02 µM | 2.75 µM |
| Cc1ccc(-c2cc(C(=O)NCc3cnc(C)cn3)cc(-n3ncnc3C(C)N(C)C)c2)nc1 (centres unmarked) [Compound 141, 3-[5-(1-Dimethylamino-ethyl)-[1,2,4]triazol-1-yl]-N-(5-methyl-pyrazin-2-ylmethyl)-5-(5-methyl-pyridin-2-yl)-benzamide] | 0.0123 µM | 0.214 µM |
| Cc1ccc(-c2cc(C(=O)NC(C)c3cnccn3)cc(-n3ncnc3C(C)N(C)C)c2)nc1 (centres unmarked) [Compound 142, 3-[5-(1-Dimethylamino-ethyl)-[1,2,4]triazol-1-yl]-5-(5-methyl-pyridin-2-yl)-N-(1-pyrazin-2-yl-ethyl)-benzamide] | 0.00912 µM | 0.229 µM |
| Cc1ccc(-c2cc(C(=O)NCc3cnc(C)cn3)cc(-n3ncnc3-c3ccccc3)c2)nc1 [Compound 143, N-(5-Methyl-pyrazin-2-ylmethyl)-3-(5-methyl-pyridin-2-yl)-5-(5-phenyl-[1,2,4]triazol-1-yl)-benzamide] | 0.0209 µM | 1.12 µM |
| Cc1ccc(-c2cc(C(=O)N[C@@H](C)CO)cc(-n3ncnc3-c3ccccc3)c2)nc1 [Compound 144, N-((S)-2-Hydroxy-1-methyl-ethyl)-3-(5-methyl-pyridin-2-yl)-5-(5-phenyl-[1,2,4]triazol-1-yl)-benzamide] | 0.182 µM | 8.91 µM |
| Cc1ccc(-c2cc(C(=O)NCc3cnc(C)cn3)cc(-n3ncnc3CC(F)F)c2)nc1 [Compound 145, 3-[5-(2,2-Difluoro-ethyl)-[1,2,4]triazol-1-yl]-N-(5-methyl-pyrazin-2-ylmethyl)-5-(5-methyl-pyridin-2-yl)-benzamide] | 0.00331 µM | 0.107 µM |
| COCCc1ncnn1-c1cc(C(=O)NCc2cnc(C)cn2)cc(-c2ccc(C)cn2)c1 [Compound 147, 3-[5-(2-Methoxy-ethyl)-[1,2,4]triazol-1-yl]-N-(5-methyl-pyrazin-2-ylmethyl)-5-(5-methyl-pyridin-2-yl)-benzamide] | 0.00457 µM | 2.45 µM |
| COCCc1ncnn1-c1cc(C(=O)N[C@@H](C)CO)cc(-c2ccc(C)cn2)c1 [Compound 148, N-((S)-2-Hydroxy-1-methyl-ethyl)-3-[5-(2-methoxy-ethyl)-1-[1,2,4]triazol-1-yl]-5-(5-methyl-pyridin-2-yl)-benzamide] | 0.0603 µM | 10 µM |
| CCOCCc1ncnn1-c1cc(C(=O)NCc2cnc(C)cn2)cc(-c2ccc(C)cn2)c1 [Compound 149, 3-[5-(2-Ethoxy-ethyl)-[1,2,4]triazol-1-yl]-N-(5-methyl-pyrazin-2-ylmethyl)-5-(5-methyl-pyridin-2-yl)-benzamide] | 0.02 µM | 7.24 µM |
| CCOCCc1ncnn1-c1cc(C(=O)N[C@@H](C)CO)cc(-c2ccc(C)cn2)c1 [Compound 150, 3-[5-(2-Ethoxy-ethyl)-[1,2,4]triazol-1-yl]-N-((S)-2-hydroxy-1-methyl-ethyl)-5-(5-methyl-pyridin-2-yl)-benzamide] | 0.158 µM | 10 µM |
